This note sets out measurements from US20170305883A1, “Compositions and Methods for Inhibiting BMP” (THE BRIGHAM AND WOMEN'S HOSPITAL, INC., priority 2014, published 2017).

The first experiment has as its target T1, ALK2 (Homo sapiens, UniProt Q04771, Q207D).
T1 construct: His tag (N, cleaved yes); made in house; host or cells: Sf9 insect cells (baculovirus)
T1 sequence (Q04771 201-499 Q207D): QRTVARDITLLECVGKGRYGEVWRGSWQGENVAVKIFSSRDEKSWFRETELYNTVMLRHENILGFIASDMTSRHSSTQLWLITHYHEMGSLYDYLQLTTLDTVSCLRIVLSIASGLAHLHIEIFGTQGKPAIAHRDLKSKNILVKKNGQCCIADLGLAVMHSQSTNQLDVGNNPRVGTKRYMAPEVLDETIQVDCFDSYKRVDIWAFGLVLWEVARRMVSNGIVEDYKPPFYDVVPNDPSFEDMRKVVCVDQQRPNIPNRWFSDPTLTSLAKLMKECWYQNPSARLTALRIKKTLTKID
Nature of the experiment: Thermal shift kinase assay. In kind it is binding. As to conditions: ALK2 ΔTm minus ALK5 ΔTm. The method, then:
Thermal melting experiments were performed using a Real Time PCR machine Mx3005p (Stratagene) with a protein concentration of 1-2 μM and 10 μM inhibitor as described by Niesen et al., Nat Protoc 2007, 2, 2212-21. Recombinant human kinases for DSF screening were prepared by SGC using the published methods of […] et al., PLoS One 2013, 8, e62721. The potency and selectivity of certain compounds of the invention based on thermal shift kinase and ligand induced transcriptional activity assays are shown in Table 2.
Take `COc1cc(-c2cc(-c3ccc(N4CCNCC4)cc3)cnc2C)cc(OC)c1OC` [Compound 10, 1-(4-(6-methyl-5-(3,4,5-trimethoxyphenyl)pyridin-3-yl)phenyl)piperazine]: the “ΔTm Diff.” value amounted to 4.0 °C.

Regarding `COc1cc(-c2cc(-c3ccc(O)cc3)cnc2N)cc(OC)c1OC` [Compound 11, 4-(6-Amino-5-(3,4,5-trimethoxyphenyl)pyridin-3-yl)phenol], the “ΔTm Diff.” value amounted to 1.5 °C.

Regarding `COc1cc(-c2cnc(N)c(-c3cc(OC)c(OC)c(OC)c3)c2)ccc1O` [Compound 12, 4-(6-amino-5-(3,4,5-trimethoxyphenyl)pyridin-3-yl)-2-methoxyphenol], the “ΔTm Diff.” value turned out to be 1.7 °C.

Regarding `COc1cc(-c2cc(-c3cccc(NS(C)(=O)=O)c3)cnc2N)cc(OC)c1OC` [Compound 13, N-(3-(6-amino-5-(3,4,5-trimethoxyphenyl)pyridin-3-yl)phenyl)methanesulfonamide], the “ΔTm Diff.” value was 0.9 °C.

Turning to `COc1cc(-c2cc(-c3cccc(N4CCNCC4)c3)cnc2N)cc(OC)c1OC` [Compound 14, 5-(3-(piperazin-1-yl)phenyl)-3-(3,4,5-trimethoxyphenyl)pyridin-2-amine], the “ΔTm Diff.” value was 0.8 °C.

With `COc1cc(-c2cc(-c3ccc(N4CCNCC4)cc3)cnc2N)cc(OC)c1OC` [Compound 15, 5-(4-(piperazin-1-yl)phenyl)-3-(3,4,5-trimethoxyphenyl)pyridin-2-amine], the “ΔTm Diff.” value worked out at 1.2 °C.

`COc1ccc(-c2cc(-c3ccc(N4CCNCC4)cc3)cnc2N)cc1OC` [Compound 16, 3-(3,4-dimethoxyphenyl)-5-(4-(piperazin-1-yl)phenyl)pyridin-2-amine]: the “ΔTm Diff.” value was 4.3 °C.

As for `COc1cc(OC)cc(-c2cc(-c3ccc(N4CCNCC4)cc3)cnc2N)c1` [Compound 17, 3-(3,5-dimethoxyphenyl)-5-(4-(piperazin-1-yl)phenyl)pyridin-2-amine], the “ΔTm Diff.” value is 3.5 °C.

Turning to `COc1cccc(-c2cc(-c3ccc(N4CCNCC4)cc3)cnc2N)c1` [Compound 18, 3-(3-methoxyphenyl)-5-(4-(piperazin-1-yl)phenyl)pyridin-2-amine], the “ΔTm Diff.” value stood at 3.8 °C.

For `Nc1ncc(-c2ccc(N3CCNCC3)cc2)cc1-c1ccc2c(c1)OCCO2` [Compound 19, 3-(2,3-dihydrobenzo[b][1,4]dioxin-6-yl)-5-(4-(piperazin-1-yl)phenyl)pyridin-2-amine], the “ΔTm Diff.” value was determined as 4.0 °C.

`COc1ccc(-c2cc(-c3ccc(N4CCNCC4)cc3)cnc2N)cc1` [Compound 20, 3-(4-methoxyphenyl)-5-(4-(piperazin-1-yl)phenyl)pyridin-2-amine]: the “ΔTm Diff.” value is 4.5 °C.

In the case of `CC(C)Oc1cccc(-c2cc(-c3ccc(N4CCNCC4)cc3)cnc2N)c1` [Compound 21, 3-(3-isopropoxyphenyl)-5-(4-(piperazin-1-yl)phenyl)pyridin-2-amine], the “ΔTm Diff.” value came out at 1.0 °C.

As for `COc1cc(-c2cc(-c3ccc(N4CCNCC4)cc3)cnc2N)ccc1Cl` [Compound 22, 3-(4-chloro-3-methoxyphenyl)-5-(4-(piperazin-1-yl)phenyl)pyridin-2-amine], the “ΔTm Diff.” value turned out to be 2.7 °C.

For the compound `COc1cc(-c2cc(-c3ccc(N4CCNCC4)cc3)cnc2N)ccc1C` [Compound 23, 3-(3-methoxy-4-methylphenyl)-5-(4-(piperazin-1-yl)phenyl)pyridin-2-amine], the “ΔTm Diff.” value was 3.8 °C.

As for `CNc1ncc(-c2ccc(N3CCNCC3)cc2)cc1-c1cc(OC)c(OC)c(OC)c1` [Compound 24, N-methyl-5-(4-(piperazin-1-yl)phenyl)-3-(3,4,5-trimethoxyphenyl)pyridin-2-amine], the “ΔTm Diff.” value was −0.5 °C.

In the case of `COc1cc(-c2cc(-c3ccc(N4CCNCC4)cc3)cnc2N(C)C)cc(OC)c1OC` [Compound 25, N,N-dimethyl-5-(4-(piperazin-1-yl)phenyl)-3-(3,4,5-trimethoxyphenyl)pyridin-2-amine], the “ΔTm Diff.” value came out at 0.1 °C.

`COc1cc(-c2cncc(-c3ccc(N4CCNCC4)cc3)c2)cc(OC)c1OC` [Compound 26, 1-(4-(5-(3,4,5-trimethoxyphenyl)pyridin-3-yl)phenyl)piperazine]: the “ΔTm Diff.” value came out at 3.7 °C.

Regarding `COc1cc(-c2cc(-c3ccc(N4CCNCC4)cc3)cnc2Cl)cc(OC)c1OC` [Compound 27, 1-(4-(6-chloro-5-(3,4,5-trimethoxyphenyl)pyridin-3-yl)phenyl)piperazine], the “ΔTm Diff.” value is 3.8 °C.

Consider `COc1cc(-c2cc(-c3ccc(N4CCNCC4)cc3)cnc2OC)cc(OC)c1OC` [Compound 28, 1-(4-(6-methoxy-5-(3,4,5-trimethoxyphenyl)pyridin-3-yl)phenyl)piperazine], for which the “ΔTm Diff.” value came out at 0.1 °C.

As to `Nc1ncc(-c2ccc(N3CCNCC3)cc2)cc1-c1ccnc2ccccc12` [Compound 29], the “ΔTm Diff.” value was 3.4 °C.

Turning to `Nc1ncc(-c2cccc(N3CCNCC3)c2)cc1-c1ccnc2ccccc12` [Compound 30, 5-(3-(piperazin-1-yl)phenyl)-3-(quinolin-4-yl)pyridin-2-amine], the “ΔTm Diff.” value worked out at 2.5 °C.

With `Nc1ncc(-c2ccc(N3CCNCC3)cc2)cc1-c1cccc2ncccc12` [Compound 31, 5-(4-(piperazin-1-yl)phenyl)-3-(quinolin-5-yl)pyridin-2-amine], the “ΔTm Diff.” value came to 4.2 °C.

For the compound `COc1cc(-c2cnn3cc(-c4ccc(N5CCNCC5)cc4)cnc23)cc(OC)c1OC` [Compound 32, 3-(3,4,5-trimethoxyphenyl)-6-[4-(1-piperazinyl)phenyl]pyrazolo[1,5-a]pyrimidine], the “ΔTm Diff.” value amounted to 2.6 °C.

Turning to `COc1cc(OC)cc(-c2cncc(-c3ccc(N4CCNCC4)cc3)c2)c1` [Compound 33, 1-(4-(5-(3,5-dimethoxyphenyl)pyridin-3-yl)phenyl)piperazine], the “ΔTm Diff.” value is 4.7 °C.

With `COc1cc(-c2cc(-c3cccc(O)c3)cnc2N)cc(OC)c1OC` [Compound K02288, 3-(6-Amino-5-(3,4,5-trimethoxyphenyl)pyridin-3-yl)phenol, reference compound], the “ΔTm Diff.” value stood at 2.0 °C.

The target of a further experiment is PKC-η (Homo sapiens, UniProt P24723). Description: Kinome profiling. It counts as biochemical. As to conditions: 100 nM, read-out: Inhibitory activity. The method, then: The kinome-wide selectivity was determined following the methods previously reported by Mohedas et al., ACS Chem Biol 2013, 8, 1291-1302 and […] et al., PLoS One 2013, 8, e62721.
PKC-η, sequence (P24723 whole entry): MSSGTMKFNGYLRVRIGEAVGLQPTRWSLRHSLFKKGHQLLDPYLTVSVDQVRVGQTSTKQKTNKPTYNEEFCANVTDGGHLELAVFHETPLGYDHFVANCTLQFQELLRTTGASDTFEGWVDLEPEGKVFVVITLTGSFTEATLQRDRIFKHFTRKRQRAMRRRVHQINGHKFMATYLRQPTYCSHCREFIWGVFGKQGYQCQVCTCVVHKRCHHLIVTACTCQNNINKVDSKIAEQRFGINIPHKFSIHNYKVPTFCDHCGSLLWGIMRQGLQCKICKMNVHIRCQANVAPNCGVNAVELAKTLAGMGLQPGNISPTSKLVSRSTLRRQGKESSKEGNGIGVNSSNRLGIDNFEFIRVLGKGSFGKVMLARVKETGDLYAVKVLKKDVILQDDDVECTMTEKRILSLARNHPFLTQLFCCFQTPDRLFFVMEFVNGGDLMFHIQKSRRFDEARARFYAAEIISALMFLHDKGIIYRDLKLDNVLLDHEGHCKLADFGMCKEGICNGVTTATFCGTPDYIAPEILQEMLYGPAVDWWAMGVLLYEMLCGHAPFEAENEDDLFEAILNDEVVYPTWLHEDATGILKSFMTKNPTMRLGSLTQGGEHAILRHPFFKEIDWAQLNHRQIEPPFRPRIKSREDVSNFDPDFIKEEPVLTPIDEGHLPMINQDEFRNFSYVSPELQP
For `COc1cc(-c2cc(-c3ccc(N4CCNCC4)cc3)cnc2N)cc(OC)c1OC` [Compound 15, 5-(4-(piperazin-1-yl)phenyl)-3-(3,4,5-trimethoxyphenyl)pyridin-2-amine], the inhibition at 0.1 µM came to 5%.
